Measured values reported in PubChem BioAssay (NCI).
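Abbreviation: GI50, concentration required for 50% inhibition of growth. The concentration for full growth arrest is given as TGI.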

What was measured:
Assay in all cases: DTP human tumour cell line panel, 384-well format
[1] = tested on: 786-0 renal
[2] = tested on: A498 renal
[3] = tested on: A549 NSCLC
[4] = tested on: ACHN renal
[5] = tested on: BT-549 breast
[6] = tested on: CAKI-1 renal
[7] = tested on: CCRF-CEM leukemia
[8] = tested on: COLO 205 colon
[9] = tested on: DU-145 prostate
[10] = tested on: HCC-2998 colon
[11] = tested on: HCT-116 colon
[12] = tested on: HCT-15 colon
[13] = tested on: HL-60(TB) leukemia
[14] = tested on: HOP-62 NSCLC
[15] = tested on: HOP-92 NSCLC
[16] = tested on: HT29 colon
[17] = tested on: IGROV1 ovarian
[18] = tested on: K-562 leukemia
[19] = tested on: KM12 colon
[20] = tested on: LOX IMVI melanoma
[21] = tested on: M14 melanoma
[22] = tested on: MALME-3M melanoma
[23] = tested on: MCF7 breast
[24] = tested on: MDA-MB-231 breast
[25] = tested on: MDA-MB-435 melanoma
[26] = tested on: MDA-MB-468 breast
[27] = tested on: MOLT-4 leukemia
[28] = tested on: NCI-H226 lung
[29] = tested on: NCI-H23 lung
[30] = tested on: NCI-H322M lung
[31] = tested on: NCI-H460 NSCLC
[32] = tested on: NCI-H522 lung
[33] = tested on: NCI/ADR-RES ovarian
[34] = tested on: OVCAR-3 ovarian
[35] = tested on: OVCAR-4 ovarian
[36] = tested on: OVCAR-5 ovarian
[37] = tested on: OVCAR-8 ovarian
[38] = tested on: PC-3 prostate
[39] = tested on: RPMI-8226 leukemia
[40] = tested on: RXF 393 renal
[41] = tested on: SF-268 CNS
[42] = tested on: SF-295 CNS
[43] = tested on: SF-539 CNS
[44] = tested on: SK-MEL-2 melanoma
[45] = tested on: SK-MEL-28 melanoma
[46] = tested on: SK-MEL-5 melanoma
[47] = tested on: SK-OV-3 ovarian
[48] = tested on: SN12C renal
[49] = tested on: SNB-19 CNS
[50] = tested on: SR leukemia
[51] = tested on: SW-620 colon
[52] = tested on: T-47D breast
[53] = tested on: TK-10 renal
[54] = tested on: U251 glioblastoma
[55] = tested on: UACC-257 melanoma
[56] = tested on: UACC-62 melanoma
[57] = tested on: UO-31 renal

`CN(CC(=O)N(Cc1ccc(C2CCCCC2)cc1)c1ccc(C(=O)O)c(O)c1)S(=O)(=O)c1c(F)c(F)c(F)c(F)c1F` gave a GI50 [1] of 2.61 µM, a TGI [1] of 7.22 µM and a GI50 [2] of 15.1 µM. It also gave a TGI [2] of 28.4 µM, a GI50 [3] of 16.8 µM and a TGI [3] of 30.6 µM. The GI50 [4] was 12.4 µM, the TGI [4] was 24.9 µM and the GI50 [5] was 2.1 µM. It also gave a TGI [5] of 3.7 µM, a GI50 [6] of 2.44 µM and a TGI [6] of 5.2 µM. It also gave a GI50 [7] of 1.81 µM, a TGI [7] of 3.21 µM and a GI50 [8] of 2.86 µM. The TGI [8] was 6.54 µM, the GI50 [9] was 18.6 µM and the TGI [9] was 32.6 µM. The GI50 [10] was 1.71 µM, the TGI [10] was 3.1 µM and the GI50 [11] was 1.83 µM. For the same compound, the TGI [11] was 3.29 µM, the GI50 [12] was 1.93 µM and the TGI [12] was 3.36 µM. The GI50 [13] was 1.75 µM, the TGI [13] was 3.14 µM and the GI50 [14] was 5.27 µM. It also gave a TGI [14] of 16.2 µM, a GI50 [15] of 2.65 µM and a TGI [15] of 5.88 µM. The GI50 [16] was 2.29 µM, the TGI [16] was 4.83 µM and the GI50 [17] was 1.79 µM. The TGI [17] was 3.34 µM, the GI50 [18] was 2.1 µM and the TGI [18] was 3.56 µM. For the same compound, the GI50 [19] was 4.16 µM, the TGI [19] was 13.4 µM and the GI50 [20] was 1.93 µM. For the same compound, the TGI [20] was 3.36 µM, the GI50 [21] was 2 µM and the TGI [21] was 3.55 µM. The GI50 [22] was 2.52 µM, the TGI [22] was 4.96 µM and the GI50 [23] was 1.88 µM. It also gave a TGI [23] of 3.54 µM, a GI50 [24] of 1.98 µM and a TGI [24] of 3.47 µM. For the same compound, the GI50 [25] was 2.29 µM, the TGI [25] was 4.28 µM and the GI50 [26] was 2.18 µM. The TGI [26] was 3.7 µM, the GI50 [27] was 1.89 µM and the TGI [27] was 3.32 µM. It also gave a GI50 [28] of 2.6 µM, a TGI [28] of 5.69 µM and a GI50 [29] of 6.96 µM. The TGI [29] was 18.3 µM, the GI50 [30] was 4.14 µM and the TGI [30] was 12.6 µM. It also gave a GI50 [31] of 4.96 µM, a TGI [31] of 16.9 µM and a GI50 [32] of 1.88 µM. The TGI [32] was 3.29 µM, the GI50 [33] was 15.3 µM and the TGI [33] was 28.6 µM. For the same compound, the GI50 [34] was 2.19 µM, the TGI [34] was 4.24 µM and the GI50 [35] was 10.7 µM. It also gave a TGI [35] of 22.6 µM, a GI50 [36] of 19.1 µM and a TGI [36] of 33.2 µM. It also gave a GI50 [37] of 1.92 µM, a TGI [37] of 3.47 µM and a GI50 [38] of 2.17 µM. The TGI [38] was 3.96 µM, the GI50 [39] was 1.79 µM and the TGI [39] was 3.18 µM. For the same compound, the GI50 [40] was 1.83 µM, the TGI [40] was 3.41 µM and the GI50 [41] was 1.94 µM. It also gave a TGI [41] of 3.46 µM, a GI50 [42] of 16.2 µM and a TGI [42] of 29.8 µM. For the same compound, the GI50 [43] was 2.01 µM, the TGI [43] was 3.76 µM and the GI50 [44] was 2.02 µM. For the same compound, the TGI [44] was 3.62 µM, the GI50 [45] was 2.58 µM and the TGI [45] was 5.55 µM. For the same compound, the GI50 [46] was 4.6 µM, the TGI [46] was 14.5 µM and the GI50 [47] was 4.48 µM. For the same compound, the TGI [47] was 15.5 µM, the GI50 [48] was 2.09 µM and the TGI [48] was 3.78 µM. It also gave a GI50 [49] of 1.99 µM, a TGI [49] of 3.6 µM and a GI50 [50] of 1.79 µM. It also gave a TGI [50] of 3.2 µM, a GI50 [51] of 1.93 µM and a TGI [51] of 3.37 µM. For the same compound, the GI50 [52] was 6.09 µM, the TGI [52] was 18.6 µM and the GI50 [53] was 14.5 µM. For the same compound, the TGI [53] was 27.6 µM, the GI50 [54] was 1.85 µM and the TGI [54] was 3.28 µM. It also gave a GI50 [55] of 1.75 µM, a TGI [55] of 3.18 µM and a GI50 [56] of 1.92 µM. For the same compound, the TGI [56] was 3.36 µM, the GI50 [57] was 12.5 µM and the TGI [57] was 25 µM.
